Measured values taken from PMC2940852 (Biochemical pharmacology, 2010).

What was measured:
placental tissue [1] = experiment: Placental viability and functional parameters during perfusion; set-up: species or system human; conditions: OH-bupropion 470 ng/ml, 4 hours, compared with control placentas
P-gp [2] = molecular target: T1, P-gp (Homo sapiens, UniProt P08183); conditions: human placenta brush border membrane IOVs
[3] = tested on: dually-perfused human placental lobule; experiment: Transplacental transfer, dual perfusion of human placental lobule; type: in vitro ADME; conditions: 4 hours perfusion, closed-closed
BCRP [4] = molecular target: T2, BCRP (Homo sapiens, UniProt Q9UNQ0); conditions: human placenta brush border membrane IOVs
T2 sequence (Q9UNQ0 1-655): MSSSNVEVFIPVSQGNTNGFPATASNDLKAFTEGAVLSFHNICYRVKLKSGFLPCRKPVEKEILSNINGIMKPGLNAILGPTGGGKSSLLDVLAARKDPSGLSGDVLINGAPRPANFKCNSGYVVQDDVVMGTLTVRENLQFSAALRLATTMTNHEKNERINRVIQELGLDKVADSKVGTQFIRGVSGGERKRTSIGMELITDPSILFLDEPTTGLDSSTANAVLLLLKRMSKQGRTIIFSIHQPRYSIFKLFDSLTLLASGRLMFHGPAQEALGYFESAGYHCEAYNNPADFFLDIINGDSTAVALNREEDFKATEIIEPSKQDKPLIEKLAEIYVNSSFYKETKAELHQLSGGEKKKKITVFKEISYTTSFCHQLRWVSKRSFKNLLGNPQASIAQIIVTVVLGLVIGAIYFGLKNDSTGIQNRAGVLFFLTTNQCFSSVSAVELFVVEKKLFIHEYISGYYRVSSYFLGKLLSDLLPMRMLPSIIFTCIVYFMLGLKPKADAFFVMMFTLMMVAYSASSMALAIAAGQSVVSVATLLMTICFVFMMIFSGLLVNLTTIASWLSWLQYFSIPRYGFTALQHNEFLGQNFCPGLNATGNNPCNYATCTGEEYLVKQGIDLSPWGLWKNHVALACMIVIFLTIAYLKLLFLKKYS

placental tissue [5] = experiment: Metabolism by placental tissue during perfusion; type: in vitro ADME, human; conditions: 4 hours of perfusion; maternal and fetal perfusate and placental tissue
[6] = tested on: dually-perfused human placental lobule; conditions: human placenta; cited from earlier work
P-gp [7] = molecular target: T1, P-gp; experiment: Stimulation of P-gp ATPase activity; type: biochemical; conditions: insect cell membranes transfected with human P-gp
BCRP [8] = molecular target: T2, BCRP; experiment: Stimulation of BCRP ATPase activity; type: biochemical; conditions: insect cell membranes transfected with human BCRP

T1 sequence (P08183 whole entry, the tested form may be a part): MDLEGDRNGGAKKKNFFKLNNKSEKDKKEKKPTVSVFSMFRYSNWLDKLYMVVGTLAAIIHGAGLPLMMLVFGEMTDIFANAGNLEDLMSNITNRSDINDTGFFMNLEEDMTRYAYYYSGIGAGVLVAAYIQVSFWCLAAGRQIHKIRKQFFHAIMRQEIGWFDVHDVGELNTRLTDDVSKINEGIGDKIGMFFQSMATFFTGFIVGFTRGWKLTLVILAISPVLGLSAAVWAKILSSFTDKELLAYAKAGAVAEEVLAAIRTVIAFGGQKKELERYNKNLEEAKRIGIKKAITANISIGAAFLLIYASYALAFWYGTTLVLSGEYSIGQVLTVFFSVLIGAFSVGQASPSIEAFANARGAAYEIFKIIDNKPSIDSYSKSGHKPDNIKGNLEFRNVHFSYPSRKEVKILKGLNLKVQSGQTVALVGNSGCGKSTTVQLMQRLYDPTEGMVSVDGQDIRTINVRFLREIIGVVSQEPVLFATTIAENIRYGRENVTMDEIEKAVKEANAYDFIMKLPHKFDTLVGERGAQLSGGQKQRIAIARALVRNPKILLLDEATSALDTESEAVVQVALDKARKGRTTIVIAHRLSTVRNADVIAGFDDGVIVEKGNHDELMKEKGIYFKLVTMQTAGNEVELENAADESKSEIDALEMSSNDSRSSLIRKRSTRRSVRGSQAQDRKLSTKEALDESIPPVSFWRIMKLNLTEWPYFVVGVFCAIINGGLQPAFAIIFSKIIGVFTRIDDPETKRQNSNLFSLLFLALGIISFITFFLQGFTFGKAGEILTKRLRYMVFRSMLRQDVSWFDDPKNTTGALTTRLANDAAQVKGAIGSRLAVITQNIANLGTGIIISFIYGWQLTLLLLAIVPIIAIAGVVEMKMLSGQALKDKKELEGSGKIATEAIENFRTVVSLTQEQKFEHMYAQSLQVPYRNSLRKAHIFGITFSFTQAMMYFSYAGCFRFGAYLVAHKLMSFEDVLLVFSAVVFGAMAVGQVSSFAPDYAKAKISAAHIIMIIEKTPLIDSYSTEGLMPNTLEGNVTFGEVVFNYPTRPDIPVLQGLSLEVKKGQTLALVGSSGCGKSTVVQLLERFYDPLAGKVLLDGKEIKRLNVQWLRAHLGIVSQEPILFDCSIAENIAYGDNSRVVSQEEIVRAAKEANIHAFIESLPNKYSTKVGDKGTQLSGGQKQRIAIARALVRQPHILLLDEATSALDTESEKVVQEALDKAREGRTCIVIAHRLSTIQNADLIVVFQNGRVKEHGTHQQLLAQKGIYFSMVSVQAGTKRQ

SMILES: C[C@H]1NC(C)(C)CO[C@]1(O)c1cccc(Cl)c1 [OH-bupropion, hydroxybupropion]
- Placental viability and functional parameters during perfusion (placental tissue [1]): unchanged
- Transported substrate of P-gp (P-gp [2]): not a transported substrate
- Fetal circuit concentration as % of initial concentration in maternal circuit [3]: 32 ± 3%
- Concentration in the fetal circuit at the end of the experimental period ([3]; initial maternal concentration 470 ± 17 ng/ml): 151 ± 13 ng/mL
- Transported substrate of BCRP (BCRP [4]): not a transported substrate
- Biotransformation by placental enzymes during perfusion (placental tissue [5]): without undergoing biotransformation

SMILES: Cc1cc(=O)n(-c2ccccc2)n1C [antipyrine]
- Placental transfer (freely-diffusible compounds) [6]: 30–40%

SMILES: CC(NC(C)(C)C)C(=O)c1cccc(Cl)c1 (stereo not shown) [bupropion]
- Vmax of stimulation of ATPase activity by P-gp (P-gp [7]): 9.5 ± 1.6 nmoles Pi/mg protein*min
- Vmax of stimulation of ATPase activity by BCRP (BCRP [8]): 6 ± 0.8 nmoles Pi/mg protein*min

SMILES: CN1CCC[C@H]1c1cccnc1 [nicotine]
- Placental transfer (freely-diffusible compounds) [6]: 30–40%
